Results from PubChem BioAssay AID248 (DTP/NCI, 2004).
Values joined by “and” are separate entries in the source; they are usually repeats but may differ in a detail not shown here. Equal entries are not always repeated. Inconclusive results and toxic doses are left out. No stated cut-off is given here; in the data, active means T/C of 150% or more; inactive means T/C below 125%.

Test system: L1210 leukemia ip in BDF1 mice, survival T/C
Assay: NCI In Vivo Anticancer Drug Screen. Data for tumor model L1210 Leukemia (intraperitoneal) in B6D2F1 (BDF1) mice
Details: endpoint: mean survival time, higher = longer survival
Procedure, shortened: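 Value reflects the ratio of survival in compound-treated mice to survival in vehicle-treated controls, with both groups carrying the same transplanted tumor.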

[1] = dose: 100.0 mg/kg/injection, schedule: Q04DX002 (ip), vehicle: Klucel (hydroxypropylcellulose) (HPC)
[2] = dose: 200.0 mg/kg/injection, schedule: Q04DX002 (ip), vehicle: Klucel (hydroxypropylcellulose) (HPC)
[3] = dose: 100.0 mg/kg/injection, schedule: Q04DX003 (ip), vehicle: saline with Tween-80
[4] = dose: 200.0 mg/kg/injection, schedule: Q04DX003 (ip), vehicle: saline with Tween-80
[5] = dose: 400.0 mg/kg/injection, schedule: Q04DX003 (ip), vehicle: saline with Tween-80
[6] = dose: 100.0 mg/kg/injection, schedule: Q01DX001 (ip), vehicle: saline
[7] = dose: 200.0 mg/kg/injection, schedule: Q01DX001 (ip), vehicle: saline
[8] = dose: 100.0 mg/kg/injection, schedule: Q04DX003 (ip), vehicle: Klucel (hydroxypropylcellulose) (HPC)
[9] = dose: 200.0 mg/kg/injection, schedule: Q04DX003 (ip), vehicle: Klucel (hydroxypropylcellulose) (HPC)
[10] = dose: 400.0 mg/kg/injection, schedule: Q04DX003 (ip), vehicle: Klucel (hydroxypropylcellulose) (HPC)
[11] = dose: 400.0 mg/kg/injection, schedule: Q01DX001 (ip), vehicle: saline
[12] = dose: 100.0 mg/kg/injection, schedule: Q01DX009 (ip), vehicle: Klucel (hydroxypropylcellulose) (HPC)
[13] = dose: 200.0 mg/kg/injection, schedule: Q01DX009 (ip), vehicle: Klucel (hydroxypropylcellulose) (HPC)
[14] = dose: 100.0 mg/kg/injection, schedule: Q01DX001 (ip), vehicle: Klucel (hydroxypropylcellulose) (HPC)
[15] = dose: 200.0 mg/kg/injection, schedule: Q01DX001 (ip), vehicle: Klucel (hydroxypropylcellulose) (HPC)
[16] = dose: 400.0 mg/kg/injection, schedule: Q01DX001 (ip), vehicle: Klucel (hydroxypropylcellulose) (HPC)
[17] = dose: 50.0 mg/kg/injection, schedule: Q01DX009 (ip), vehicle: saline with Tween-80
[18] = dose: 75.0 mg/kg/injection, schedule: Q01DX001 (ip), vehicle: saline
[19] = dose: 150.0 mg/kg/injection, schedule: Q01DX001 (ip), vehicle: saline
[20] = dose: 100.0 mg/kg/injection, schedule: Q01DX001 (ip), vehicle: carboxymethylcellulose (CMC)
[21] = dose: 200.0 mg/kg/injection, schedule: Q01DX001 (ip), vehicle: carboxymethylcellulose (CMC)
[22] = dose: 400.0 mg/kg/injection, schedule: Q01DX001 (ip), vehicle: carboxymethylcellulose (CMC)

Measured: T/C

COc1ccc(C2Nc3ccccc3NC3CC(C)(C)CC(=O)C32)cc1 (stereo unspecified)
inactive: [1] 120 % of control | [2] 98 % of control | dose: 400.0 mg/kg/injection, schedule: Q04DX002 (ip), vehicle: Klucel (hydroxypropylcellulose) (HPC) 109 % of control

N#C/C(=C\c1cc(Br)cc(Br)c1O)c1ccc([N+](=O)[O-])cc1
inactive: [3] 97 % of control | [4] 87 % of control | [5] 102 % of control

CCCCCCCCCCC(=O)N1CCCCC1
inactive: dose: 100.0 mg/kg/injection, schedule: Q04DX002 (ip), vehicle: saline 100 % of control | dose: 200.0 mg/kg/injection, schedule: Q04DX002 (ip), vehicle: saline 96 % of control | dose: 400.0 mg/kg/injection, schedule: Q04DX002 (ip), vehicle: saline 96 % of control

CC(=O)Oc1c(-c2ccccc2)cc([N+](=O)[O-])cc1[N+](=O)[O-]
inactive: dose: 50.0 mg/kg/injection, schedule: Q04DX002 (ip), vehicle: Klucel (hydroxypropylcellulose) (HPC) 97 % of control | [1] 103 % of control | [2] 94 % of control

CC(=O)N(C(C)=O)c1ccc(C)cc1
inactive: dose: 100.0 mg/kg/injection, schedule: Q01DX009 (ip), vehicle: saline 109 % of control | dose: 100.0 mg/kg/injection, schedule: Q04DX003 (ip), vehicle: saline 95 % of control | dose: 200.0 mg/kg/injection, schedule: Q01DX009 (ip), vehicle: saline 112 % of control | dose: 200.0 mg/kg/injection, schedule: Q04DX003 (ip), vehicle: saline 108 % of control | dose: 400.0 mg/kg/injection, schedule: Q04DX003 (ip), vehicle: saline 103 % of control

O=[N+]([O-])c1cccc(N(CCF)CCF)c1
inactive: dose: 5.0 mg/kg/injection, schedule: Q01DX001 (ip), vehicle: carboxymethylcellulose (CMC) 103 % of control | dose: 10.0 mg/kg/injection, schedule: Q01DX001 (ip), vehicle: carboxymethylcellulose (CMC) 103 % of control | dose: 20.0 mg/kg/injection, schedule: Q01DX001 (ip), vehicle: carboxymethylcellulose (CMC) 112 % of control

Nc1nc(N)c2cc(N(CCO)CCO)ccc2n1
inactive: dose: 50.0 mg/kg/injection, schedule: Q01DX001 (ip), vehicle: saline 101 % of control | [6] 95 % of control | [7] 95 % of control

COC(=O)Nc1cccc(OC(=O)NC2CCCCC2)c1
inactive: [3] 100 % of control | [4] 100 % of control | [5] 93 % of control

O=[N+]([O-])c1ncn(Cc2ccccc2)c1Br
inactive: [8] 91 % of control | [9] 94 % of control | [10] 89 % of control

CC(C)/C=N/NC(N)=S
inactive: dose: 3.13 mg/kg/injection, schedule: Q01DX001 (ip), vehicle: Klucel (hydroxypropylcellulose) (HPC) 102 % of control | dose: 6.25 mg/kg/injection, schedule: Q01DX001 (ip), vehicle: Klucel (hydroxypropylcellulose) (HPC) 118 % of control | dose: 12.5 mg/kg/injection, schedule: Q01DX001 (ip), vehicle: Klucel (hydroxypropylcellulose) (HPC) 99 % of control and 102 % of control

Nc1nc(N)c(-c2ccc(Cl)cc2)c(COc2cccc(NC(=O)c3ccc(NC(=O)CBr)cc3)c2)n1
inactive: [6] 91 % of control | [7] 91 % of control | [11] 104 % of control

CCC(=O)OC1C(C)OC(OC2C(C)OC(O[C@H]3[C@@H](CC=O)C[C@@H](C)[C@@H](O)/C=C/C=C/C[C@@H](C)OC(=O)C[C@@H](OC(=O)CC)[C@@H]3OC)C(O)C2N(C)C)CC1(C)O (stereo partly specified)
inactive: [12] 96 % of control | [8] 104 % of control | [13] 93 % of control | [9] 95 % of control | dose: 400.0 mg/kg/injection, schedule: Q01DX009 (ip), vehicle: Klucel (hydroxypropylcellulose) (HPC) 98 % of control | [10] 91 % of control

CCOC(=O)C1C(=O)C(C(C(=O)OC2CC(C)CCC2C(C)C)N(CCCl)CCCl)C(=O)C(C(=O)OCC)C1c1ccc(O)cc1 (stereo unspecified) (tested in a mixture with another compound)
inactive: dose: 50.0 mg/kg/injection, schedule: Q01DX009 (ip), vehicle: Klucel (hydroxypropylcellulose) (HPC) 93 % of control | [12] 109 % of control | [13] 111 % of control

Nc1ccc(N=Nc2ccc(S(=O)(=O)Nc3nccs3)cc2)c(N)n1
inactive: [6] 102 % of control | [7] 96 % of control | [11] 88 % of control

CCOC(=O)CC(C(C)=O)P(=O)(OCC)OCC (stereo unspecified)
inactive: dose: 50.0 mg/kg/injection, schedule: Q01DX009 (ip), vehicle: saline + alcohol 96 % of control | dose: 100.0 mg/kg/injection, schedule: Q01DX009 (ip), vehicle: saline + alcohol 96 % of control | dose: 200.0 mg/kg/injection, schedule: Q01DX009 (ip), vehicle: saline + alcohol 92 % of control

CC(=O)N=c1sccn1Cc1ccccc1
inactive: dose: 75.0 mg/kg/injection, schedule: Q01DX001 (ip), vehicle: carboxymethylcellulose (CMC) 95 % of control | dose: 150.0 mg/kg/injection, schedule: Q01DX001 (ip), vehicle: carboxymethylcellulose (CMC) 98 % of control | dose: 300.0 mg/kg/injection, schedule: Q01DX001 (ip), vehicle: carboxymethylcellulose (CMC) 98 % of control

N#Cc1sc2ccccc2c1O
inactive: dose: 50.0 mg/kg/injection, schedule: Q04DX003 (ip), vehicle: Klucel (hydroxypropylcellulose) (HPC) 106 % of control | [8] 97 % of control | [9] 95 % of control

O=C(NCCBr)c1ccc(CCl)cc1
inactive: dose: 75.0 mg/kg/injection, schedule: Q04DX003 (ip), vehicle: Klucel (hydroxypropylcellulose) (HPC) 102 % of control | [14] 104 % of control | dose: 150.0 mg/kg/injection, schedule: Q04DX003 (ip), vehicle: Klucel (hydroxypropylcellulose) (HPC) 96 % of control | [15] 95 % of control | dose: 300.0 mg/kg/injection, schedule: Q04DX003 (ip), vehicle: Klucel (hydroxypropylcellulose) (HPC) 97 % of control | [16] 103 % of control

BrC1(Br)C2CC/C=C\CCC21 (stereo unspecified)
inactive: [17] 102 % of control | dose: 100.0 mg/kg/injection, schedule: Q01DX009 (ip), vehicle: saline with Tween-80 94 % of control

CCN1C(=O)CN=C(c2ccccn2)c2cc(Cl)ccc21
inactive: [14] 95 % of control | [15] 101 % of control | [16] 96 % of control

CNc1nc(N(C)C)nc(N(C)C)n1
inactive: [18] 92 % of control | [19] 94 % of control

O=C(Nc1ccc(Br)cc1C(=O)O)c1cccc(Br)c1
inactive: dose: 100.0 mg/kg/injection, schedule: Q01DX001 (ip), vehicle: other 103 % of control

O=C(COc1ccccc1)N(O)c1ccc(/C=C/c2ccccc2)cc1
inactive: [20] 93 % of control | [21] 95 % of control | [22] 88 % of control

[Ni+2].[O-]c1ccccc1C=Nc1ccccc1N=Cc1ccccc1[O-]
inactive: dose: 12.5 mg/kg/injection, schedule: Q01DX009 (ip), vehicle: saline with Tween-80 93 % of control | dose: 25.0 mg/kg/injection, schedule: Q01DX009 (ip), vehicle: saline with Tween-80 93 % of control | [17] 93 % of control

O=C1c2ccccc2-c2cccc(Cl)c21
inactive: [20] 101 % of control | [21] 93 % of control | [22] 104 % of control

CC1CC[N+]2(C)CCCC12 (stereo unspecified)
inactive: dose: 6.25 mg/kg/injection, schedule: Q01DX009 (ip), vehicle: saline 100 % of control | dose: 12.5 mg/kg/injection, schedule: Q01DX009 (ip), vehicle: saline 100 % of control

C1CNC(CN2CCCC2)C1 (stereo unspecified)
inactive: [18] 93 % of control | [19] 101 % of control | dose: 300.0 mg/kg/injection, schedule: Q01DX001 (ip), vehicle: saline 103 % of control

CC(C)CCC[C@@H](C)[C@H]1CC[C@H]2[C@@H]3CC[C@H]4C[C@H]5N[C@H]5C[C@]4(C)[C@H]3CC[C@]12C
inactive: [14] 93 % of control | [16] 90 % of control
